Assay results taken from PubChem BioAssay (NCI).
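Cultured in 96-well plates, cells were exposed to test compound for 48 hours across five concentrations. The concentration for full growth arrest is given as TGI.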

What was measured:
Assay in all cases: NCI anticancer screen, dose series, 48 h
786-0 renal = tested on: 786-0 renal
A498 renal = tested on: A498 renal
A549 NSCLC = tested on: A549 NSCLC
ACHN renal = tested on: ACHN renal
BT-549 breast = tested on: BT-549 breast
CAKI-1 renal = tested on: CAKI-1 renal
CCRF-CEM leukemia = tested on: CCRF-CEM leukemia
COLO 205 colon = tested on: COLO 205 colon
DU-145 prostate = tested on: DU-145 prostate
EKVX NSCLC = tested on: EKVX NSCLC
HCC-2998 colon = tested on: HCC-2998 colon
HCT-116 colon = tested on: HCT-116 colon
HCT-15 colon = tested on: HCT-15 colon
HOP-62 NSCLC = tested on: HOP-62 NSCLC
HOP-92 NSCLC = tested on: HOP-92 NSCLC
HS 578T breast = tested on: HS 578T breast
HT29 colon = tested on: HT29 colon
K-562 leukemia = tested on: K-562 leukemia
KM12 colon = tested on: KM12 colon
LOX IMVI melanoma = tested on: LOX IMVI melanoma
M14 melanoma = tested on: M14 melanoma
MALME-3M melanoma = tested on: MALME-3M melanoma
MCF7 breast = tested on: MCF7 breast
MDA-MB-231 breast = tested on: MDA-MB-231 breast
MDA-MB-435 = tested on: MDA-MB-435
MDA-N = tested on: MDA-N
MOLT-4 leukemia = tested on: MOLT-4 leukemia
NCI-H226 lung = tested on: NCI-H226 lung
NCI-H23 lung = tested on: NCI-H23 lung
NCI-H460 lung = tested on: NCI-H460 lung
NCI-H522 lung = tested on: NCI-H522 lung
NCI/ADR-RES ovarian = tested on: NCI/ADR-RES ovarian
OVCAR-3 ovarian = tested on: OVCAR-3 ovarian
OVCAR-4 ovarian = tested on: OVCAR-4 ovarian
OVCAR-5 ovarian = tested on: OVCAR-5 ovarian
OVCAR-8 ovarian = tested on: OVCAR-8 ovarian
PC-3 prostate = tested on: PC-3 prostate
RPMI-8226 leukemia = tested on: RPMI-8226 leukemia
RXF 393 renal = tested on: RXF 393 renal
SF-268 CNS = tested on: SF-268 CNS
SF-295 CNS = tested on: SF-295 CNS
SF-539 CNS = tested on: SF-539 CNS
SK-MEL-2 melanoma = tested on: SK-MEL-2 melanoma
SK-MEL-28 melanoma = tested on: SK-MEL-28 melanoma
SK-MEL-5 melanoma = tested on: SK-MEL-5 melanoma
SK-OV-3 ovarian = tested on: SK-OV-3 ovarian
SN12C renal = tested on: SN12C renal
SNB-19 CNS = tested on: SNB-19 CNS
SNB-75 CNS = tested on: SNB-75 CNS
SR leukemia = tested on: SR leukemia
SW-620 colon = tested on: SW-620 colon
T-47D breast = tested on: T-47D breast
TK-10 renal = tested on: TK-10 renal
U251 CNS = tested on: U251 CNS
UACC-257 melanoma = tested on: UACC-257 melanoma
UACC-62 melanoma = tested on: UACC-62 melanoma
UO-31 renal = tested on: UO-31 renal
HL-60(TB) leukemia = tested on: HL-60(TB) leukemia
IGROV1 ovarian = tested on: IGROV1 ovarian

COc1ccccc1N1C(=O)CC(=O)N(C(=O)CCCCCCCCC(=O)N2C(=O)CC(=O)N(c3ccccc3OC)C2=S)C1=S
TGI (786-0 renal): > 100 µM
TGI (A498 renal): > 100 µM
TGI (A549 NSCLC): > 100 µM
TGI (ACHN renal): > 100 µM
TGI (BT-549 breast): > 100 µM
TGI (CAKI-1 renal): > 100 µM
TGI (CCRF-CEM leukemia): > 100 µM
TGI (COLO 205 colon): > 100 µM
TGI (DU-145 prostate): > 100 µM
TGI (EKVX NSCLC): > 100 µM
TGI (HCC-2998 colon): > 100 µM
TGI (HCT-116 colon): > 100 µM
TGI (HCT-15 colon): > 100 µM
TGI (HOP-62 NSCLC): > 100 µM
TGI (HOP-92 NSCLC): > 100 µM
TGI (HS 578T breast): > 100 µM
TGI (HT29 colon): > 100 µM
TGI (K-562 leukemia): > 100 µM
TGI (KM12 colon): > 100 µM
TGI (LOX IMVI melanoma): > 100 µM
TGI (M14 melanoma): > 100 µM
TGI (MALME-3M melanoma): > 100 µM
TGI (MCF7 breast): > 100 µM
TGI (MDA-MB-231 breast): > 100 µM
TGI (MDA-MB-435): > 100 µM
TGI (MDA-N): > 100 µM
TGI (MOLT-4 leukemia): > 100 µM
TGI (NCI-H226 lung): > 100 µM
TGI (NCI-H23 lung): > 100 µM
TGI (NCI-H460 lung): > 100 µM
TGI (NCI-H522 lung): > 100 µM
TGI (NCI/ADR-RES ovarian): > 100 µM
TGI (OVCAR-3 ovarian): > 100 µM
TGI (OVCAR-4 ovarian): > 100 µM
TGI (OVCAR-5 ovarian): > 100 µM
TGI (OVCAR-8 ovarian): > 100 µM
TGI (PC-3 prostate): > 100 µM
TGI (RPMI-8226 leukemia): > 100 µM
TGI (RXF 393 renal): > 100 µM
TGI (SF-268 CNS): > 100 µM
TGI (SF-295 CNS): > 100 µM
TGI (SF-539 CNS): > 100 µM
TGI (SK-MEL-2 melanoma): > 100 µM
TGI (SK-MEL-28 melanoma): > 100 µM
TGI (SK-MEL-5 melanoma): > 100 µM
TGI (SK-OV-3 ovarian): > 100 µM
TGI (SN12C renal): > 100 µM
TGI (SNB-19 CNS): > 100 µM
TGI (SNB-75 CNS): > 100 µM
TGI (SR leukemia): > 100 µM
TGI (SW-620 colon): > 100 µM
TGI (T-47D breast): > 100 µM
TGI (TK-10 renal): > 100 µM
TGI (U251 CNS): > 100 µM
TGI (UACC-257 melanoma): > 100 µM
TGI (UACC-62 melanoma): > 100 µM
TGI (UO-31 renal): > 100 µM

CN(C)CC1=Nc2cccc3cccc(c23)N1
TGI (786-0 renal): 25.8 µM
TGI (A498 renal): 28.2 µM
TGI (A549 NSCLC): > 100 µM
TGI (ACHN renal): 28.2 µM
TGI (BT-549 breast): 31.5 µM
TGI (CAKI-1 renal): 38.6 µM
TGI (CCRF-CEM leukemia): > 100 µM
TGI (COLO 205 colon): 7.11 µM
TGI (DU-145 prostate): 30.9 µM
TGI (EKVX NSCLC): 31.7 µM
TGI (HCC-2998 colon): 32.3 µM
TGI (HCT-116 colon): 30.8 µM
TGI (HCT-15 colon): 77.5 µM
TGI (HL-60(TB) leukemia): 45.2 µM
TGI (HOP-62 NSCLC): > 100 µM
TGI (HOP-92 NSCLC): 33.1 µM
TGI (HS 578T breast): > 100 µM
TGI (HT29 colon): 53.7 µM
TGI (IGROV1 ovarian): 36.6 µM
TGI (K-562 leukemia): 62.3 µM
TGI (KM12 colon): 59.3 µM
TGI (LOX IMVI melanoma): 37.3 µM
TGI (M14 melanoma): 34.7 µM
TGI (MALME-3M melanoma): 36.5 µM
TGI (MCF7 breast): 30.8 µM
TGI (MDA-MB-231 breast): 34.7 µM
TGI (MDA-MB-435): 38.1 µM
TGI (MDA-N): 35 µM
TGI (NCI-H226 lung): 37.4 µM
TGI (NCI-H23 lung): 49.9 µM
TGI (NCI-H460 lung): > 100 µM
TGI (NCI/ADR-RES ovarian): > 100 µM
TGI (OVCAR-3 ovarian): 30.5 µM
TGI (OVCAR-4 ovarian): 26.6 µM
TGI (OVCAR-5 ovarian): 31.6 µM
TGI (OVCAR-8 ovarian): > 100 µM
TGI (PC-3 prostate): 32.3 µM
TGI (RPMI-8226 leukemia): 55.8 µM
TGI (RXF 393 renal): 31.9 µM
TGI (SF-268 CNS): 33.4 µM
TGI (SF-295 CNS): > 100 µM
TGI (SF-539 CNS): 35.9 µM
TGI (SK-MEL-2 melanoma): 35.5 µM
TGI (SK-MEL-28 melanoma): 49.1 µM
TGI (SK-MEL-5 melanoma): 28.7 µM
TGI (SK-OV-3 ovarian): > 100 µM
TGI (SN12C renal): 31.8 µM
TGI (SNB-19 CNS): > 100 µM
TGI (SNB-75 CNS): 30.4 µM
TGI (SR leukemia): 84.3 µM
TGI (SW-620 colon): > 100 µM
TGI (T-47D breast): 24.6 µM
TGI (TK-10 renal): 32.3 µM
TGI (U251 CNS): 32.5 µM
TGI (UACC-257 melanoma): 31 µM
TGI (UACC-62 melanoma): 29.6 µM
TGI (UO-31 renal): 23 µM
